Patent US7208515B2, “Diphenylmethyl compounds useful as muscarinic receptor antagonists” (Theravance, Inc., priority 2004, dated 2007)
pKi: −log10 of the molar value.

Columns and labels:
[1] = target: T1, hM2 receptor (CHO-K1 cells) (Homo sapiens, UniProt P08172); experiment: Blockade of agonist-mediated [35S]GTPγS binding; format: biochemical; settings: CHO-K1 cells expressing the hM2 receptor; read-out: Ki value for blockade of oxotremorine-stimulated [35S]GTPγS binding
T1 construct: expressed in transfected cells; host or cells: CHO-K1 cells
T1 sequence (P08172 1-466): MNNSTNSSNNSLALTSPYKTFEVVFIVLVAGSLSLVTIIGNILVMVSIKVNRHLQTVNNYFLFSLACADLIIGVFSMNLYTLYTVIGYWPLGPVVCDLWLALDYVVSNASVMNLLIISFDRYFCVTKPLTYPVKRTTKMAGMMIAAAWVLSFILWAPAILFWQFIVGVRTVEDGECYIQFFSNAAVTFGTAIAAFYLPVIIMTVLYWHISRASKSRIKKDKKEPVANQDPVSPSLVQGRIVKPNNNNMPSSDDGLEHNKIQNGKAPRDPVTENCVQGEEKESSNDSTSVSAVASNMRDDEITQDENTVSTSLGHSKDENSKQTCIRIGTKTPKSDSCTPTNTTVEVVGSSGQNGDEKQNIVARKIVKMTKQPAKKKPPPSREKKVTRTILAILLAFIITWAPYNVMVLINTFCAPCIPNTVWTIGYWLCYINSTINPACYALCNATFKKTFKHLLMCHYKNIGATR
Procedure: B. Blockade of Agonist-Mediated [^35S]GTPγS Binding
In a second functional assay, the functional potency of test compounds can be determined by measuring the ability of the compounds to block oxotremorine-stimulated [^35S]GTPγS binding in CHO-K1 cells expressing the hM2 receptor.
At the time of use, frozen membranes were thawed and then diluted in assay buffer with a final target tissue concentration of 5–10 μg protein per well. The membranes were briefly homogenized using a Polytron PT-2100 tissue disrupter and then added to the assay plates.
The EC90 value (effective concentration for 90% maximal response) for stimulation of [^35S]GTPγS binding by the agonist oxotremorine was determined in each experiment.
To determine the ability of a test compound to inhibit oxotremorine-stimulated [^35S]GTPγS binding, the following was added to each well of 96 well plates: 25 μL of assay buffer with [^35S]GTPγS (0.4 nM), 25 μL of oxotremorine(EC90) and GDP (3 μM), 25 μL of diluted test compound and 25 μL CHO cell membranes expressing the hM2 receptor. […] Microscint-20 scintillation liquid (50 μL) was added to each well, and each plate was sealed and radioactivity counted on a topcounter (PerkinElmer). Data were analyzed by nonlinear regression analysis with the GraphPad Prism Software package (GraphPad Software, Inc., San Diego, Calif.) using the non-linear regression, one-site competition equation. […]

[2] = tested on: MCh-induced depressor responses; experiment: Methacholine-induced depressor responses in conscious guinea pigs; format: in vivo; settings: guinea pig, inhalation
Excerpt: Methacholine-Induced Depressor Responses in Conscious Guinea Pigs
Healthy, adult, male Sprague-Dawley guinea pigs (Harlan, Indianapolis, Ind.), weighing between 200 and 300 g were used in these studies. Under isoflurane anesthesia (to effect), animals were instrumented with common carotid artery and jugular vein catheters (PE-50 tubing). The catheters were exteriorized utilizing a subcutaneous tunnel to the subscapular area. All surgical incisions were sutured with 4-0 Ethicon Silk and the catheters locked with heparin (1000 units/mL). Each animal was administered saline (3 mL, SC) at the end of surgery as well as buprenorphine (0.05 mg/kg, IM). Animals were allowed to recover on a heating pad before being returned to their holding rooms.
Approximately 18 to 20 hours following surgery, the animals were weighed and the carotid artery catheter on each animal was connected to a transducer for recording arterial pressure. Arterial pressure and heart rate was recorded using a Biopac MP-100 Acquisition System. Animals were allowed to acclimate and stabilize for a period of 20 minutes.
Each animal was challenged with MCh (0.3 mg/kg, IV) administered through the jugular venous line and the cardiovascular response was monitored for 10 minutes. […] At 1.5 and 24 h post-dosing, the animals were re-challenged with MCh (0.3 mg/kg, IV) and the hemodynamic response was determined. […]

pKi [1]: > 7.00
SMILES: CNCC(=O)NCCCCCN1CC[C@@H](C(C(N)=O)(c2ccccc2)c2ccccc2)C1 [Example 1]
apparent lung-selectivity index (ratio of anti-depressor ID50 to bronchoprotective ID50) [2]: greater than 5
